In the assay the target is hcGAS (Homo sapiens, UniProt Q8N884). Description: hcGAS LCMS assay (direct measurement of cGAMP production by LC/MS). Format: biochemical. On the procedure:
cGAS catalyzes the cyclization of ATP and GTP to produce cGAMP, which is the activating ligand of STING. Human cGAS (hcGAS) inhibition can thus be quantified by measuring how much cGAMP is formed either indirectly, by monitoring ATP-depletion as in the hcGAS Kinase-Glo assay (as described below), or directly, such as using the hcGAS LCMS assay (as described below).
2. hGAS LCMS Assay Conditions
Compounds were tested for their hcGAS inhibition activity using direct measurement of cGAMP production by LC/MS. Briefly, compounds were incubated with enzyme and substrates for 4 hours (see Table C), before the reaction was stopped with 3 volumes of 70/30 Acetonitrile/H2O mix containing 0.15 uM cGAMP-^13C10^15N5 as internal standard and mixed for 5 mmn. After centrifugation (3700 rpm, […], […]), 100 uL of each reaction was collected and mixed to equal volume of acetonitrile (MeCN). Samples were then analyzed on Qexactive (Column: XBridge BEH Amide Column, 130 Å, 3.5 μm, 3 mm×50 mm. Mobile phase A: 10 mM Ammonium acetate in 95/5 H2O/MeCN (0.5% DMSO), Mobile phase B: MeCN (0.5% DMSO).
The results of the assay, expressed as IC50 values, are reported in Table D with the following designations: A represents an IC50 value <0.005 μM (with A1 representing an IC50 value <0.0005 μM, A2 representing an IC50 value ≥0.0005 μM and <0.001 μM, and A3 representing an IC50 value ≥0.001 μM and <0.005 μM); B represents an IC50 value ≥0.005 μM and <0.02 μM; C represents an IC50 value ≥0.02 μM and <0.06 μM; and D represents an IC50 value ≥0.06 μM.

Setting [1] is: 4 h incubation with enzyme and substrates, cGAMP production by LC/MS, class symbols, read-out: hcGAS LCMS IC50.

SMILES strings stand for the structures. Read-outs that look alike come from different tables or passages of the source.

Sequence of hcGAS (Q8N884 whole entry): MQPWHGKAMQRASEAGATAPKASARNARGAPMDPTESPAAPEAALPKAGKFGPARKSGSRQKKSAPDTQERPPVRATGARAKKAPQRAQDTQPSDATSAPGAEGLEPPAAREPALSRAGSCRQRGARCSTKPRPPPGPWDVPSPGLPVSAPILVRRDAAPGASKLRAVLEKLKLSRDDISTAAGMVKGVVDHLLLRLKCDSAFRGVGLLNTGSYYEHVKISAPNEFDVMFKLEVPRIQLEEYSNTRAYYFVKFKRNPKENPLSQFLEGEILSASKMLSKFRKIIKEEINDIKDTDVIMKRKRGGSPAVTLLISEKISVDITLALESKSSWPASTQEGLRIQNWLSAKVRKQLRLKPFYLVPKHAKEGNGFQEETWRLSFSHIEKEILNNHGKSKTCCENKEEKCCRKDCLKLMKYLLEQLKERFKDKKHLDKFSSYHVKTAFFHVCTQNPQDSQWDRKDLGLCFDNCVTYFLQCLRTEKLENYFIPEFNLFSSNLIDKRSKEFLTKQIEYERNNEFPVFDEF

`COc1cccc(OC)c1-c1cc(C(=O)Nc2nnc(-n3nccc3N)s2)oc(=O)c1O[C@H]1CCOC1` [52A*, (S)-N-(5-(5-amino-1H-pyrazol-1-yl)-1,3,4-thiadiazol-2-yl)-4-(2,6-dimethoxyphenyl)-2-oxo-3-((tetrahydrofuran-3-yl)oxy)-2H-pyran-6-carboxamide]: the 50% inhibitory concentration (IC50) under setting [1] is less than 0.5 nM. As for `COc1cccc(OC)c1-c1cc(C(=O)Nc2nnc(-n3nccc3N)s2)oc(=O)c1O[C@@H]1CCOC1` [52B*, (R)-N-(5-(5-amino-1H-pyrazol-1-yl)-1,3,4-thiadiazol-2-yl)-4-(2,6-dimethoxyphenyl)-2-oxo-3-((tetrahydrofuran-3-yl)oxy)-2H-pyran-6-carboxamide], under setting [1], the 50% inhibitory concentration (IC50) is 0.5 to 1 nM. Same read-out and setting: under `COc1cccc(OC)c1-c1cc(C(=O)Nc2nnc(-n3nccc3N)s2)oc(=O)c1OC[C@@H]1CCCO1` [56A*, (S)-N-(5-(5-amino-1H-pyrazol-1-yl)-1,3,4-thiadiazol-2-yl)-4-(2,6-dimethoxyphenyl)-2-oxo-3-((tetrahydrofuran-2-yl)methoxy)-2H-pyran-6-carboxamide] stands 0.5 to 1 nM; under `COc1cccc(OC)c1-c1cc(C(=O)Nc2nnc(-n3nccc3N)s2)oc(=O)c1OC[C@H]1CCCO1` [56B*, (R)-N-(5-(5-amino-1H-pyrazol-1-yl)-1,3,4-thiadiazol-2-yl)-4-(2,6-dimethoxyphenyl)-2-oxo-3-((tetrahydrofuran-2-yl)methoxy)-2H-pyran-6-carboxamide], 0.5 to 1 nM. As to `COCC(CN1CCSCC1)Oc1c(-c2c(OC)cccc2OC)cc(C(=O)Nc2nnc(-n3nccc3N)s2)oc1=O` (stereo not shown) [78A*/78B*], the half-inhibitory concentration (IC50) under setting [1] was in the range of 5 to 20 nM.

For `COc1cccc(OC)c1-c1cc(C(=O)Nc2nnc(-n3nccc3N)s2)oc(=O)c1OC[C@@H](CO)N1CCSCC1` [79A*, (R)-N-(5-(5-amino-1H-pyrazol-1-yl)-1,3,4-thiadiazol-2-yl)-4-(2,6-dimethoxyphenyl)-3-(3-hydroxy-2-thiomorpholinopropoxy)-2-oxo-2H-pyran-6-carboxamide], under setting [1], the concentration for half-maximal inhibition (IC50) was 1 to 5 nM. Turning to `COc1cccc(OC)c1-c1cc(C(=O)Nc2nnc(-n3nccc3N)s2)oc(=O)c1OC[C@H](CO)N1CCSCC1` [79B*, (S)-N-(5-(5-amino-1H-pyrazol-1-yl)-1,3,4-thiadiazol-2-yl)-4-(2,6-dimethoxyphenyl)-3-(3-hydroxy-2-thiomorpholinopropoxy)-2-oxo-2H-pyran-6-carboxamide], under setting [1], the IC50 lay within 1 to 5 nM. As to `COc1cccc(OC)c1-c1cc(C(=O)Nc2nnc(-n3nccc3N)s2)oc(=O)c1O[C@H](CO)CN1CCSCC1` [81A*, (S)-N-(5-(5-amino-1H-pyrazol-1-yl)-1,3,4-thiadiazol-2-yl)-4-(2,6-dimethoxyphenyl)-3-((1-hydroxy-3-thiomorpholinopropan-2-yl)oxy)-2-oxo-2H-pyran-6-carboxamide], under setting [1], the IC50 lay within 1 to 5 nM. Turning to `COc1cccc(OC)c1-c1cc(C(=O)Nc2nnc(-n3nccc3N)s2)oc(=O)c1O[C@@H](CO)CN1CCSCC1` [81B*, (R)-N-(5-(5-amino-1H-pyrazol-1-yl)-1,3,4-thiadiazol-2-yl)-4-(2,6-dimethoxyphenyl)-3-((1-hydroxy-3-thiomorpholinopropan-2-yl)oxy)-2-oxo-2H-pyran-6-carboxamide], the IC50 under setting [1] lay within 1 to 5 nM. Still for that read-out and setting: to `COc1cccc(OC)c1-c1cc(C(=O)Nc2nnc(-n3nccc3N)s2)oc(=O)c1OCCN1CCO[C@H](CSC)C1` [82A*, (S)-N-(5-(5-amino-1H-pyrazol-1-yl)-1,3,4-thiadiazol-2-yl)-4-(2,6-dimethoxyphenyl)-3-(2-(2-((methylthio)methyl)morpholino)ethoxy)-2-oxo-2H-pyran-6-carboxamide] belongs 1 to 5 nM; to `COc1cccc(OC)c1-c1cc(C(=O)Nc2nnc(-n3nccc3N)s2)oc(=O)c1OCCN1CCO[C@@H](CSC)C1` [82B*, (R)-N-(5-(5-amino-1H-pyrazol-1-yl)-1,3,4-thiadiazol-2-yl)-4-(2,6-dimethoxyphenyl)-3-(2-(2-((methylthio)methyl)morpholino)ethoxy)-2-oxo-2H-pyran-6-carboxamide], 0.5 to 1 nM; to `COc1cccc(OC)c1-c1cc(C(=O)Nc2nnc(-n3nccc3N)s2)oc(=O)c1OCC1CSCCO1` (stereo not shown) [83A*/83B*], 0.5 to 1 nM. On the same count and under the same terms, under `COCC(CN1CCOCC1)Oc1c(-c2c(OC)cccc2OC)cc(C(=O)Nc2nnc(-n3nccc3N)s2)oc1=O` (stereo not shown) [84A*/84B*] stands 5 to 20 nM; under `COc1cccc(OC)c1-c1cc(C(=O)Nc2nnc(-n3nccc3N)s2)oc(=O)c1OCC(O)CN1CCSCC1` (stereo not shown) [91A*/91B*], 0.5 to 1 nM. Still for that read-out and setting: to `COC[C@@H](CO)COc1c(-c2c(OC)cccc2OC)cc(C(=O)Nc2nnc(-n3nccc3N)s2)oc1=O` [92A*, (R)-N-(5-(5-amino-1H-pyrazol-1-yl)-1,3,4-thiadiazol-2-yl)-4-(2,6-dimethoxyphenyl)-3-(3-hydroxy-2-(methoxymethyl)propoxy)-2-oxo-2H-pyran-6-carboxamide] belongs 0.5 to 1 nM; to `COC[C@H](CO)COc1c(-c2c(OC)cccc2OC)cc(C(=O)Nc2nnc(-n3nccc3N)s2)oc1=O` [92B*, (S)-N-(5-(5-amino-1H-pyrazol-1-yl)-1,3,4-thiadiazol-2-yl)-4-(2,6-dimethoxyphenyl)-3-(3-hydroxy-2-(methoxymethyl)propoxy)-2-oxo-2H-pyran-6-carboxamide], 1 to 5 nM. Regarding `COc1cccc(OC)c1-c1cc(C(=O)Nc2nnc(-n3nccc3N)s2)oc(=O)c1OCCN1C[C@@H]2C[C@H]1CS2` [93A*, 3-(2-((1S,4S)-2-thia-5-azabicyclo[2.2.1]heptan-5-yl)ethoxy)-N-(5-(5-amino-1H-pyrazol-1-yl)-1,3,4-thiadiazol-2-yl)-4-(2,6-dimethoxyphenyl)-2-oxo-2H-pyran-6-carboxamide], the concentration for half-maximal inhibition (IC50) under setting [1] lay in the range of 0.5 to 1 nM.

Consider `COc1cccc(OC)c1-c1cc(C(=O)Nc2nnc(-n3nccc3N)s2)oc(=O)c1OCCN1C[C@H]2C[C@@H]1CS2` [93B*, 3-(2-((1R,4R)-2-thia-5-azabicyclo[2.2.1]heptan-5-yl)ethoxy)-N-(5-(5-amino-1H-pyrazol-1-yl)-1,3,4-thiadiazol-2-yl)-4-(2,6-dimethoxyphenyl)-2-oxo-2H-pyran-6-carboxamide], for which the IC50 under setting [1] fell in the range of 0.5 to 1 nM. Still for that read-out and setting: under `COc1cccc(OC)c1-c1cc(C(=O)Nc2nnc(-n3nccc3N)s2)oc(=O)c1OCCN1CCSCC1CO` (stereo not shown) [96A*/96B*] stands 1 to 5 nM. On the same count and under the same terms, under `COc1cccc(OC)c1-c1cc(C(=O)Nc2nnc(-n3nccc3N)s2)oc(=O)c1OCC1(OC)CCC(O)CC1` (stereo not shown) [99A*/99B*] stands 1 to 5 nM; under `COc1cccc(OC)c1-c1cc(C(=O)Nc2nnc(-n3nccc3N)s2)oc(=O)c1OCCN1CCSC(CO)C1` (stereo not shown) [100A*/100B*], 1 to 5 nM; under `COc1cccc(OC)c1-c1cc(C(=O)Nc2nnc(-n3nccc3N)s2)oc(=O)c1OCCOC1CC(O)C1` (stereo not shown) [102A*, N-(5-(5-amino-1H-pyrazol-1-yl)-1,3,4-thiadiazol-2-yl)-4-(2,6-dimethoxyphenyl)-3-(2-((1s,3s)-3-hydroxycyclobutoxy)ethoxy)-2-oxo-2H-pyran-6-carboxamide], 0.5 to 1 nM. As to `COc1cccc(OC)c1-c1cc(C(=O)Nc2nnc(-n3nccc3N)s2)oc(=O)c1O[C@H](CO)C1CC1` [106A*, (S)-N-(5-(5-amino-1H-pyrazol-1yl)-1,3,4-thiadiazol-2-yl)-3-(1-cyclopropyl-2-hydroxyethoxy)-4-(2,6-dimethoxyphenyl)-2-oxo-2H-pyran-6-carboxamide], under setting [1], the IC50 was 1 to 5 nM. The same measure, in the same setting: under `COc1cccc(OC)c1-c1cc(C(=O)Nc2nnc(-n3nccc3N)s2)oc(=O)c1O[C@@H](CO)C1CC1` [106B*, (R)-N-(5-(5-amino-1H-pyrazol-1-yl)-1,3,4-thiadiazol-2-yl)-3-(1-cyclopropyl-2-hydroxyethoxy)-4-(2,6-dimethoxyphenyl)-2-oxo-2H-pyran-6-carboxamide] stands 1 to 5 nM. `COc1c(-c2ccccc2C#N)cc(C(=O)Nc2nnc(-n3nccc3C)s2)oc1=O` [Compound 1, 4-(2-cyanophenyl)-3-methoxy-N-(5-(5-methyl-1H-pyrazol-1-yl)-1,3,4-thiadiazol-2-yl)-2-oxo-2H-pyran-6-carboxamide]: the concentration for half-maximal inhibition (IC50) by setting is: under setting [1], 0.5 to 1 nM; (hcGAS 0.5 nM, ATP 100 μM, GTP 100 μM, dsDNA 25 nM, pH 7.4, 4 h incubation, read-out: hcGAS inhibition IC50 (activity class, Table D)) 0.5 to 1 nM. For `COc1c(-c2ccccc2S(C)(=O)=O)cc(C(=O)Nc2nnc(-n3nccc3C)s2)oc1=O` [Compound 2, 3-methoxy-N-(5-(5-methyl-1H-pyrazol-1-yl)-1,3,4-thiadiazol-2-yl)-4-(2-(methylsulfonyl)phenyl)-2-oxo-2H-pyran-6-carboxamide], the IC50 under setting [1] is 5 to 20 nM. `COc1c(-c2ccccc2P(C)(C)=O)cc(C(=O)Nc2nnc(-n3nccc3C)s2)oc1=O` [Compound 3, 4-(2-(dimethylphosphoryl)phenyl)-3-methoxy-N-(5-(5-methyl-1H-pyrazol-1-yl)-1,3,4-thiadiazol-2-yl)-2-oxo-2H-pyran-6-carboxamide]: the half-maximal inhibitory concentration (IC50) under setting [1] fell in the range of 20 to 60 nM.

By IC50 is commonly meant the concentration that inhibits the measured activity by half.

The values above are taken from US20260327221A1, “INHIBITORS OF CYCLIC GMP-AMP SYNTHASE AND USES THEREOF” (Ventus Therapeutics U.S., Inc., priority 2023, published 2026).
